Experiment [1] concerns the target WE14 peptide (…), natural cleavage product of chromogranin A (mouse). Briefly: cell-based or functional assay.
The subject of experiment [2] is T cell clone BDC-2.5. Briefly: IFNγ production by T cell clone in antigen assay (ELISA). The experiment is classed as cell-based, NOD mouse. Particulars: peptide or preparation as antigen. The source says:
(§1) The T cell clones are maintained in culture by periodic re-stimulation with irradiated NOD splenocytes and islet cells or β-membrane. To assay for antigen, resting responder T cells (i.e., for example, the cells at the end of the two-week restimulation period) are co-cultured for 24 hr with elicited peritoneal macrophages (PEC) as APC and either a test sample or control antigen. Control antigen will be in the form of islet cells or the whole-cell membrane fraction (i.e., for example, a β-membrane fraction). As described above, unlysed β-membrane is stored in aliquots at −80° C. for this purpose. Negative controls include responder cells alone and responders plus APC.
(§2) At the end of the culture period, supernatants are collected from the cultures and IFNγ production is measured by ELISA. Wells positive for IFNγ are indicative of T cells responding to antigen; the amount of cytokine produced is calculated from a standard curve and is directly proportional to the amount of antigen present.
(§3) Antigenicity of islet cells, cellular and biochemical fractions, peptides, or insect cells expressing IA^g7-peptide constructs, was assessed through responses of T cell clones or hybridomas made by fusing T cell clones to the TCR^− version of T cell lymphoma, BW5147. White et al., “Two better cell lines for making hybridomas expressing specific T cell receptors” J Immunol 143:1822-1825 (1989). T cell clone cultures typically contained 2×10^4 responder T cells, 2.5×10^4 NOD peritoneal exudate cells (PEC) as APC, and antigen (SEC/IEX fractions, peptides, islet cells); all assays were performed with β-Mem as a positive control. IFNγ was measured by ELISA of culture supernatants. For cultures with T cell hybridomas, antigen/MHC activation was assessed by IL-2 production measured by a bioassay using the HT-2 T cell line. Walker et al., “Antigenspecific. I region-restricted interactions in vitro between tumor cell lines and T cell hybridomas” J Immunol 128:2164-2169 (1982). Synthetic peptides were either produced in the Molecular Resource Center at National Jewish Health or obtained from CHI Scientific, Maynard, Mass.

A further experiment relates to T cell clone BDC-5.10.3. The experiment is described as above. The experiment is classed as cell-based, NOD mouse. The note with it: peptide or preparation as antigen.
Source text: as §1, §2, §3

Experiment [3] has as its system T cell clone BDC-10.1. The description is as above. Format: cell-based, NOD mouse. The note with it: peptide or preparation as antigen.
Source text: as §1, §2, §3

The test system of the next experiment is soluble IA^g7. The experiment is described as follows: Peptide binding to IA^g7: competition with biotinylated HEL peptide. Details: species or system NOD mouse. Particulars: competition with biotinylated pHEL 11 μM, pH 5.6, overnight. The source says: FIG. 15B: A series of ChgA peptides tested for their ability to compete with a biotinylated HEL peptide for binding to soluble IA^g7. pS3-positive control peptide. IE^k moth cytochrome c-negative control peptide. N=2. Y axis: Percent of IA^g7-bound biotinylated HEL peptide as compared to IE^k. X axis: Log concentration of inhibitor peptide.
In order to confirm the unique binding register of the WE14 peptide, a series of peptides comprising N-terminal extensions and/or C-terminal deletions of WE14 were evaluated for their ability to stimulate the BDC-2.5 T cell clone (FIG. 6a) or to bind to IA^g7. See, FIG. 15A. […] See, FIG. 15B. Further, a pS3 mimotope was used as the positive control peptide and an irrelevant peptide from moth cytochrome c, pMCC, was the negative control peptide. The data were analyzed to determine the stimulatory or binding capacity of the peptides relative to WE14. See, FIG. 15C.
Soluble IA^g7 with covalently attached pHEL was treated with thrombin to cleave the linker attaching the peptide to the IA^g7 β chain. Kozono et al., “Production of soluble MHC class II proteins with covalently bound single peptides” Nature 369:151-154 (1994). Samples (0.5 μg) were incubated with a soluble biotinylated version of pHEL, Biotin-GGGMKRHGLDNYRGYSL (SEQ ID NO: 56) (11 μM), either alone or in the presence of various concentrations of potential competitors peptides, in 15 μL of pH 5.6 buffer overnight at room temperature. The sample was diluted to 100 μL of PBS in a well of a 96-well ELISA plate coated with an anti-IA^g7 monoclonal antibody, OX-6 (BD Pharmaceuticals). The captured IA^g7 was washed several times with PBS and the bound bio-pHEL detected with alkaline phosphatase coupled Extravadin (Sigma) and […].

In experiment [4] the test system is T cell clone BDC-10.1. Particulars: Yoshida et al 2002; cited from earlier work.
The subject of experiment [5] is T cell clone BDC-2.5. Particulars: Yoshida et al 2002; cited from earlier work.
A further experiment concerns T cell clone PD-12.4.4. The experiment is described as follows: IFNγ production by insulin-reactive control T cell clone (ELISA). The note with it: negative control clone. Format: cell-based, NOD mouse.
Source text: as §1, §2
Antigenicity of islet cells, cellular and biochemical fractions, peptides, or insect cells expressing IA^g7-peptide constructs, was assessed through responses of T cell clones or hybridomas made by fusing T cell clones to the TCR^− version of T cell lymphoma, BW5147. […] IFNγ was measured by ELISA of culture supernatants. […]

Another experiment deals with BDC-2.5 TCR. Briefly: Binding of fluorescent multimeric soluble BDC-2.5 TCR to IA^g7-peptide on insect cells (flow cytometry). Details: species or system mouse. The note with it: oligomerized. The source says:
FIG. 13B: Use of a fluorescent, oligomerized, soluble BDC-2.5 TCR to enrich from the library a virus encoding an IA^g7-mimotope (i.e., for example, pS3) that forms a strong ligand with a BDC-2.5 TCR.
The amino acids at p1, p2, p3, p5, p7 and p8 were fully randomized to all 20 amino acids. See, FIG. 13A. Insect cells were infected with the library at a multiplicity of infection of <1 such that most infected cells expressed a single member of the library. The few infected cells expressing an IA^g7-peptide combination capable of binding a fluorescent, soluble, multimeric version of BDC-2.5 TCR were isolated using flow cytometry. See, FIG. 13B, panel 1). These cells were used to create a new enriched viral stock. […]
The PCR DNA fragment encoding the library was cloned directly into baculovirus DNA already encoding the IA^g7 genes, attached via a linker to the N-terminus of the β chain. […] Insect cells infected with the library at a multiplicity of infection of <1 were analyzed by flow cytometry for cells that expressed IA^g7 (OX-6 Mab, BD-Pharmingen) and also bound a multivalent TCR reagent consisting of the soluble BDC-2.5 TCR captured by a biotinylated anti-Cα Mab, ADO-304, bound to Alexafluor-647 labeled streptavidin (Molecular Probes). […] The peptide sequence encoded in the positive clones was determined.

Experiment [6] has as its system BDC-10.1 T cell hybridoma. Briefly: IL-2 production by T cell hybridoma stimulated with ICAM/B7 insect cells displaying IA^g7-peptide. Format: cell-based, mouse. The note with it: covalent IA^g7-peptide complex on B7/ICAM insect cells; 24 hrs. As to the method: (§4) FIG. 13C: Three BDC T cell hybridomas stimulated in culture either with: i) immobilized H597 anti-TCR Cβ Mab; ii) ICAM/B7 expressing SF9 cells infected with virus encoding IA^g7 with a HEL peptide; or ii) ICAM/B7 expressing SF9 cells infected with virus encoding IA^g7 with pS3. IL-2 production was assayed after 24 hrs.
(§5) T cell hybridomas bearing TCR from either the BCD-2.5, BDC-10.1 or BDC-5.10.3 T cell clones were tested for their ability to recognize the covalent IA^g7-p53 complex using B7/ICAM-expressing insect cells as artificial APCs. See, FIG. 13C; Crawford et al., “Mimotopes for alloreactive and conventional T cells in a peptide-MHC display library” PloS Biol 2:E90 (2004); and Crawford et al., “Use of baculovirus MHC/peptide display libraries to characterize T-cell receptor ligands” Immunol Rev 210: 156-170 (2006).
as §3

The subject of a further experiment is BDC-2.5 T cell hybridoma. The description is as above. Particulars: covalent IA^g7-peptide complex on B7/ICAM insect cells; 24 hrs. The experiment is classed as cell-based, mouse. As for the experimental part:
as §4, §5, §3

Experiment [7] relates to BDC-5.10.3 T cell hybridoma. The experiment is described as above. The note with it: covalent IA^g7-peptide complex on B7/ICAM insect cells; 24 hrs. The experiment is classed as cell-based, mouse. As to the method: as §4, §5, §3

These results are taken from patent publication US20120128646A1, “METHODS AND COMPOSITIONS FOR THE TREATMENT OF AUTOIMMUNE DISEASE” (priority 2009, published 2012).

“Also recorded” adds a separate entry of the source.

In experiment [1], “TCR of the T cell clone BDC-2.5 (on the T cell clone or on a hybridoma bearing this TCR)” displayed a percentage of maximal IFN-γ response at 100 mg/ml β-membrane (% of maximal IFN-γ response) of 15 and a potency in activating the BDC clones, relative to the pS3 mimotope (fold less potent than pS3) of 1000.

With “EDKRWSRMD [ChgA aa354-362; ED9 = WD5 extended with EDKR]”, the “Stimulation of T cell clone BDC-2.5 (IFNγ response), result in words” value is on record as “did not stimulate” in the experiment on T cell clone BDC-2.5 [2] and “failed to stimulate” in the experiment on T cell clone BDC-2.5 [2] (listed as ED9). Besides, in the experiment on T cell clone BDC-5.10.3, the “Stimulation of T cell clone BDC-5.10.3 (IFNγ response), result in words” value is “did not stimulate”. Also, the “Stimulation of T cell clone BDC-10.1 (IFNγ response), result in words” value in the experiment with T cell clone BDC-10.1 [3] was “did not stimulate”. The “IA^g7 binding, result in words” value with soluble IA^g7 is listed as “did not bind”.

With “WL11: WE14 truncated by 3 C-terminal amino acids (WSRMDQLAKEL)”, the “Stimulation of T cell clone BDC-2.5 (IFNγ response), result in words” value in the experiment with T cell clone BDC-2.5 [2] was “decreasing stimulatory activity”. In addition, the “IA^g7 binding, result in words” value in the experiment on soluble IA^g7 is given as “indistinguishable from the negative control peptide”.

“EDKRWSRMDQLAKELTAE [EE18, WE14 extended by 4 amino acids (EDKR)]”: the “Stimulation of T cell clone BDC-2.5 (IFNγ response), result in words” value with T cell clone BDC-2.5 [2] is recorded as “virtually eliminated”. In addition, in the experiment on soluble IA^g7, the “IA^g7 binding, result in words” value is reported as “no effect”.

Turning to “HIPIWARMD [peptide mimotope of Yoshida et al 2002]”, the “Mimotope activation of BDC-10.1” value in the experiment with T cell clone BDC-10.1 [4] is recorded as “activate”.

With “HRPIWARMD [peptide mimotope of Yoshida et al 2002]”, the “Mimotope activation of BDC-2.5” value with T cell clone BDC-2.5 [5] was “highly stimulatory; also recorded: activate”.

On to “TCR of the T cell clone BDC-10.1 (on the T cell clone or on a hybridoma bearing this TCR)”, for which the potency in activating the BDC clones, relative to the pS3 mimotope (fold less potent than pS3) in [1] was found to be 1000.

In the case of “RLGLWVRME [mimotope from baculovirus IA^g7-peptide library]”, the “Stimulation of T cell clone BDC-2.5 (IFNγ response), result in words” value is reported as “strongly stimulated” in the experiment with T cell clone BDC-2.5 [2] and “maximally” in the experiment on T cell clone BDC-2.5 [2] (listed as pS3). Moreover, the “Stimulation of T cell clone BDC-5.10.3 (IFNγ response), result in words” value with T cell clone BDC-5.10.3 was “strongly stimulated”; in the experiment on T cell clone BDC-5.10.3 (listed as pS3), “maximally”. The entries for the “Stimulation of T cell clone BDC-10.1 (IFNγ response), result in words” value in the experiment on T cell clone BDC-10.1 [3] and in the experiment with T cell clone BDC-10.1 [3] (listed as pS3) were “strongly stimulated” and “maximally”, respectively. Also, the “Response of insulin-reactive T cell clone PD-12.4.4 (IFNγ), result in words” value in the experiment with T cell clone PD-12.4.4 is reported as “not”. In addition, in the experiment on soluble IA^g7, the “IA^g7 binding, result in words” value was “higher affinity”. In addition, in the experiment with BDC-2.5 TCR, the “Binding of IA^g7-mimotope to BDC-2.5 TCR” value is “strong ligand”. For the same substance, the “Activation of BDC-10.1 hybridoma (IL-2 production)” value in experiment [6] is “maximally activated”. Further, the “Activation of BDC-2.5 hybridoma (IL-2 production)” value with BDC-2.5 T cell hybridoma is given as “maximally activated”. Besides, the “Activation of BDC-5.10.3 hybridoma (IL-2 production)” value in experiment [7] is recorded as “maximally activated”.

Consider “SHLVEALYLVCGERG [insulin peptide, reference compound]”, for which the “Response of insulin-reactive T cell clone PD-12.4.4 (IFNγ), result in words” value in the experiment with T cell clone PD-12.4.4 is reported as “responded”.
